Measured values taken from PubChem BioAssay (NCI).
Several values for one entry are separate records, joined by “and”; a condition that tells them apart may be missing. Identical values can stand only once.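 Test compounds were applied to cells in 96-well plates for 48 hours at 5 doses. GI50: concentration for 50% inhibition of growth. TGI: total growth inhibition.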

Tests used:
Assay in all cases: inhibition of tumour cell growth, NCI panel, 48 h
[1] = tested on: 786-0 renal
[2] = tested on: BT-549 breast
[3] = tested on: CCRF-CEM leukemia
[4] = tested on: HCT-15 colon
[5] = tested on: KM12 colon
[6] = tested on: LOX IMVI melanoma
[7] = tested on: NCI-H522 lung
[8] = tested on: OVCAR-8 ovarian
[9] = tested on: SK-MEL-28 melanoma
[10] = tested on: SNB-19 CNS

Compound | GI50 [1] [µM] | TGI [1] [µM] | GI50 [2] [µM] | TGI [2] [µM] | GI50 [3] [µM] | TGI [3] | GI50 [4] [µM] | TGI [4] [µM] | GI50 [5] [µM] | TGI [5] [µM] | GI50 [6] [µM] | TGI [6] [µM] | GI50 [7] [µM] | TGI [7] [µM] | GI50 [8] [µM] | TGI [8] [µM] | GI50 [9] [µM] | TGI [9] [µM] | GI50 [10] [µM] | TGI [10] [µM]
CN(C)CCC(=O)Nc1ccc(-n2cc(-c3cccc(NC(=S)Nc4cccc(-c5cn(-c6ccc(NC(=O)CCN(C)C)cc6)nn5)c4)c3)nn2)cc1 | > 100 | > 100 | 22.9 | 66.4 | 21.4 | 78.3 µM | > 100 | > 100 | 10.7 | 34 | 7.7 | > 100 | 27.3 | > 100 | 42.3 | > 100 | 24.5 | 53.4 | 49.5 | > 100
CSc1nc(Nc2cccc(NC(=O)CCl)c2)c(C#N)c(-c2cccc([N+](=O)[O-])c2)n1 | 2.94 | 43.7 | 1.79 | 5.68 | 0.34 | > 100 µM | 1.66 | 4.1 | 1.93 | 3.92 | 0.0373 | 0.152 | 1.68 | 5.36 | 2.39 | 9.37 | 2.15 | 4.28 | 2.06 | 4.78
Nc1cc2c3c(cccc3c1)C(=O)N(CCN1CCCC1)C2=O | 4.5 | > 55.7 | 6.49 | 29.8 | 3.88 | > 35.6 µM | 2.02 | > 100 | 3.66 | 51.2 | 2.25 | 13.4 | 3.46 | 19.4 | 3.69 | > 100 | 4.28 | 18.2 | 3.33 | 29
CCCC(=O)O[C@]1(C)CC[C@@H]2[C@H]3[C@@H]1[C@@H]1C[C@@](C)(O)[C@H](OC)CC[C@](C)(OC(=O)[C@@H]2C)[C@H]3O1 | > 100 | > 100 | 40.3 | > 100 | 2.35 | 13.9 µM | 47 | > 100 | 19.4 | 44.7 | 66.9 | > 100 | 32 | > 100 | 39.1 | > 100 | 19.9 | 35 | 32.1 | > 100
Clc1ccccc1C(Nc1cnccn1)Nc1cnccn1 |  | > 100 |  | > 100 |  | > 100 µM |  | > 100 |  | > 100 |  | > 100 |  | > 100 |  | > 100 |  | > 100 |  | > 100
Oc1ccc(Cl)cc1C=Nc1cnc2ccccc2c1 |  | > 100 |  | > 100 |  | 7.1 µM |  | > 100 |  | > 100 |  | > 100 |  | > 100 |  | > 100 |  | > 100 |  | > 100
C=C1C(=O)O[C@@H]2/C=C(/C)[C@@H](OC(C)=O)C/C=C(\C)C(O)[C@@H](OC(=O)/C(C)=C\C)C12 (stereo partly drawn) |  | 29.7 |  | 44.3 |  | 57.2 µM |  | 30.3 |  | > 100 |  | 27.7 |  | 32.3 |  | 75.3 |  | 32.1 |  | > 100
CN1CCN(C2=NC(=O)/C(=C\c3ccc(N(C)C)cc3)S2)CC1 | > 100 | > 100 | > 100 | > 100 | 38.4 | > 100 µM | > 100 | > 100 | > 100 | > 100 | 75.1 | > 100 | > 100 | > 100 | > 100 | > 100 | > 100 | > 100 | > 100 | > 100
COc1ccc(-c2ccc(OC)c(OC)c2OC)cc1 | 8.23 | 82.2 | 1.57 | > 62.6 | 2.19 | > 100 µM | 0.766 | > 100 | 0.767 | > 51.8 | 2.82 | > 100 | 1.56 | > 27.9 | 6.9 | > 100 | 14.9 | > 100 | 4.83 | > 100
Cn1c(COC(=O)NCCc2ccccn2)nc2c(N3CCOCC3)nc(Cl)nc21 | 1.34 | 2.95 | 1.71 | 4.06 | 0.62 | 12.6 µM | 1.14 | 3.2 | 1.8 | 4.75 | 0.899 | 2.39 | 1.35 | 3.16 | 2.38 | 10.1 | 1.7 | 3.47 | 3.97 | 16.1
CC(C)(C)C[C@H]1N[C@@H](C(=O)NC2CCC(O)CC2)[C@H](c2cccc(Cl)c2F)[C@@]12C(=O)Nc1cc(Cl)ccc12 (stereo partly drawn) | 4.22 | 15.4 | 3.8 | 14.1 | 3.51 | 15.4 µM | 3.92 | 18.2 | 6.85 | 22.1 | 0.577 | 18.1 | 7.89 | 22.9 | 14.8 | 39.4 | 3.28 | 11.7 | 5.93 | 21.3
Cc1ccc(/C(=N/Nc2ccc([N+](=O)[O-])cc2)Sc2cc(Cl)c(C)cc2S(N)(=O)=O)cc1 | 1.82 | 3.37 | 10.4 | 26 | 2.11 | 4.58 µM | 3.64 | > 49.6 | 1.37 | 3.18 | 1.49 | 3.45 | 4.96 | > 28.2 | 7.38 | > 100 | 3.03 | 8.9 | 2.5 | > 20.5
CC1(C)CC(C)(C)c2cc(NC(=S)Nc3ccc([N+](=O)[O-])cc3)ccc2S1 | 17 | > 55.5 | 13.2 | 28.2 | 12.3 | 41.1 µM | 12.6 | 45.8 | 10.9 | 34.8 | 12.4 | 31.9 | 9.63 | 22.1 | 16.6 | 60.4 | 17.2 | 68.5 | 21 | > 76.1
CCCCCCCC(=O)OCC/C=C/C1OC1C1OC(=O)/C=C\C=C\C(=O)N(C(C)=O)C(=O)/C=C(/C)CCC2OC2C1OC(=O)NC(C)=O (stereo not drawn) | 4.12 | 11.1 | 6.43 | > 25 | 0.734 | > 25 µM | 5.13 | 18.4 | 3.88 | 11.7 | 2.93 | 6.74 | 3.78 | 8.16 | 3.64 | 16.6 | 5.12 | 14.3 | > 25 | > 25
Cc1cccc(C2NC(=O)c3ccccc3N2)c1 (stereo not drawn) |  | > 100 |  | > 100 |  | > 100 µM |  | > 100 |  | > 100 |  | > 100 |  | 46.1 |  | > 100 |  | > 100 |  | > 100
COC1=CC(c2ccc[nH]2)=N/C1=C\c1[nH]c(C)c(C(=O)CCCCCCCCC(=O)O[C@H]2CC[C@H]3C4CCc5cc(O)ccc5C4CC[C@]23C)c1C (stereo partly drawn) | 0.787 | > 12.8 | 0.618 | > 45.1 | 0.117 | > 50 µM | 1.55 | > 50 | 0.379 | > 50 | 0.0764 | 0.267 | 0.277 | > 33.9 | 0.378 | > 50 | 0.841 | > 50 | 3.16 | > 50
O=c1[nH]c(C2CCCN2)nc2c1oc1ccc(Cl)cc12 (stereo not drawn) | > 100 | > 100 | 31.5 | > 100 | 68.1 | > 100 µM | > 100 | > 100 | > 100 | > 100 | 68 | > 100 | 26.9 | > 100 | > 100 | > 100 | > 100 | > 100 | 68.1 | > 100
[N-]=[N+]=CC(=O)CCC(N)C(=O)O (stereo not drawn) | 7.17 | > 250 |  | > 250 | 5.82 | 54.6 µM and 157 µM | 2 | > 222 | 3.14 | > 250 | 0.793 | 167 | 0.963 | > 149 | 7.03 | > 218 | 15.3 | 202 | 10.1 | > 250
COc1cc(/C=N/NC(=O)c2cnn3c2NC(c2ccccc2)C3)ccc1OC1CCCC1 (stereo not drawn) | 0.639 | 3.73 | 1.46 | 5.74 | 0.691 | 10.8 µM | 0.5 | 10.8 | 0.39 | 4.46 | 0.581 | 2.21 | 0.475 | 6.54 | 1.57 | 7.61 | 1.25 | 9.15 | 0.923 | 10.9
Cn1c(COC(=O)NCCn2ccnc2)nc2c(N3CCOCC3)nc(-c3ccccc3)nc21 | 0.72 | 2.1 | 0.737 | 2.04 | 0.254 | 1.44 µM | 0.193 | 0.484 | 1.43 | 3.06 | 0.152 | 0.314 | 0.352 | 1.56 | 0.913 | 2.63 | 1.33 | 2.62 | 1.38 | 2.69
O=C1C(=O)c2c(nc3ccc(C(F)(F)F)cn23)-c2ccccc21 | 0.396 | 0.835 | 0.186 | 0.442 | 0.39 |  | 0.202 | 0.656 | 0.288 | 0.995 | 0.173 | 0.354 | 0.206 | 0.549 | 0.253 | 0.651 | 0.221 | 0.431 | 0.303 | 0.763
COc1c2ccoc2nc2c(OC)c(OCC(O)C(C)(C)O)ccc12 (stereo not drawn) |  | > 100 |  | > 100 |  | > 100 µM |  | > 100 |  | > 100 |  | > 100 |  | > 100 |  | > 100 |  | > 100 |  | > 100
COc1cc2c(/C=C3\C(=O)Nc4ccccc43)c[nH]c2cc1C | < 0.0218 | 12.6 | 0.294 | 15.8 | 0.0196 | 0.0734 µM | 0.725 | 2.93 | 0.239 | 0.824 | 0.652 | 4.19 | 0.833 | > 35.3 | 0.0917 | 7.19 | 0.021 | 20.3 | 0.112 | 32.3
COc1cc(C2CC(c3ccc(Nc4nc(NCCO)nc(NCCO)n4)cc3)=NN2c2cc(Cl)cc(Cl)c2)cc(OC)c1OC (stereo not drawn) | 1.29 | 2.59 | 1.67 | 4.54 | 2.53 | 10.7 µM | 1.5 | 3.13 | 1.53 | 3.21 | 1.6 | 3.1 | 2.25 | 9.21 | 2.01 | 5.86 | 1.53 | 3.14 | 1.72 | 4.12
O=C1NC(=NCCc2ccc(Cl)cc2)S/C1=C\c1ccc2ncccc2c1 | 14.3 | > 25 | 13.9 | > 25 | 12.5 | > 25 µM | 12.9 | > 25 | > 23 | > 25 | > 20.9 | > 25 | 3.41 | > 16 | 12.9 | > 25 | > 25 | > 25 | > 25 | > 25
NCCO/C=C/C(N)C(=O)O (stereo not drawn) |  | > 100 |  | > 100 |  | > 100 µM |  | > 100 |  | > 100 |  | > 100 |  | > 100 |  | > 100 |  | > 100 |  | > 100
